Reference: BindingDB's records for doi:10.7270/Q2KH0KWR (Burnham Center For Chemical Genomics, 2012)

Molecular target: T1, Tyrosine-protein phosphatase non-receptor type 5 (Homo sapiens, UniProt P54829)
T1 sequence (P54829 whole entry): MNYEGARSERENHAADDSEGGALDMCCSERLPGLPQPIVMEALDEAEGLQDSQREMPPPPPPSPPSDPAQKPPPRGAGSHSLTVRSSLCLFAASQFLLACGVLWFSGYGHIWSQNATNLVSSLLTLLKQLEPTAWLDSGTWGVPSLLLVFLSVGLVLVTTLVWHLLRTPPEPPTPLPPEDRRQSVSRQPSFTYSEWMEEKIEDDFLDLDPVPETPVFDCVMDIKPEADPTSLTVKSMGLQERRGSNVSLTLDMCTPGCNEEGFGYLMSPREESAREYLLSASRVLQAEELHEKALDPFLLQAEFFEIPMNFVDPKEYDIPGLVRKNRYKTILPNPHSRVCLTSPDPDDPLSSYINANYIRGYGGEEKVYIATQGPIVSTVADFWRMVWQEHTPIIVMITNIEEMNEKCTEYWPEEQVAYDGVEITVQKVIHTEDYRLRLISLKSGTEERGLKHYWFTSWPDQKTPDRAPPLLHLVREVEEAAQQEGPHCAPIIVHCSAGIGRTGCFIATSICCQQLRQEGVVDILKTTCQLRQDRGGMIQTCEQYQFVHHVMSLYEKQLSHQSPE
Assay: STEP phosphatase inhibitor potency, dose response, orthogonal assay for STEP inhibitor project, biochemical, colorimetric absorbance (AID 624207)

[1] = inactive by the depositor's call

Row | Structure (SMILES) | IC50 [µM] | IC50 [1] [µM]
1 | Clc1ccc(Cl)c(-c2nc(-c3ccncc3)no2)c1 [4-[5-(2,5-dichlorophenyl)-1,2,4-oxadiazol-3-yl]pyridine] | > 80 | –
2 | S=c1[nH]nc(-c2cccnc2)n1N=Cc1ccc(Br)s1 [4-[(E)-(5-bromothiophen-2-yl)methylideneamino]-3-pyridin-3-yl-1H-1,2,4-triazole-5-thione] | > 80 | –
3 | O=C(N/N=C/c1cccc([N+](=O)[O-])c1)c1ccc(Br)cc1 [4-bromo-N-[(E)-(3-nitrophenyl)methylideneamino]benzamide] | – | 21.5
4 | O=[N+]([O-])c1ccc(O)c(Nc2ncnc3ccccc23)c1 [4-nitro-2-(4-quinazolinylamino)phenol] | > 80 | –
5 | Cc1ccc(S(=O)(=O)Cc2ccc(C(=O)O)o2)cc1 [5-(tosylmethyl)-2-furoic acid] | > 80 | –
6 | O=C(N/N=C/c1ccc(Br)cc1)c1ccc(Br)o1 [5-bromanyl-N-[(E)-(4-bromophenyl)methylideneamino]furan-2-carboxamide] | – | 24.1
7 | N#C/C(=C\c1ccc(OC(=O)c2ccc(Cl)s2)cc1)c1nc2ccccc2[nH]1 [5-chloro-2-thiophenecarboxylic acid [4-[(E)-2-(1H-benzimidazol-2-yl)-2-cyanoethenyl]phenyl] ester] | > 80 | –
8 | OCCN1CCN(C(=S)c2ccc(Cl)c(Cl)c2)CC1 [(3,4-dichlorophenyl)-[4-(2-hydroxyethyl)-1-piperazinyl]methanethione] | – | 22
9 | C=c1c(O)c(O)c(=C2C(=O)C(=O)C(C)C(=O)C2=O)c(O)c1O (configuration not stated) [(3E)-5-hydroxy-6-methyl-3-(2,3,5-trihydroxy-4-methyl-6-oxo-1-cyclohexa-2,4-dienylidene)cyclohex-5-ene-1,2,4-trione] | > 80 | –
10 | CCOc1ccc(C(=S)N2CCN(C)CC2)cc1 [(4-ethoxyphenyl)-(4-methyl-1-piperazinyl)methanethione] | – | 44.3
11 | COc1cc(C(=S)N2CCCCC2)ccc1O [(4Z)-2-methoxy-4-[piperidin-1-yl(sulfanyl)methylidene]cyclohexa-2,5-dien-1-one] | 15.5 | –
12 | COc1cccc(N2[C@@H](CC(=O)O)c3ccc(/C=C/C(=O)O)cc3S2(=O)=O)c1 [(E)-3-[(3S)-3-(carboxymethyl)-2-(3-methoxyphenyl)-1,1-dioxo-3H-1,2-benzothiazol-6-yl]prop-2-enoic acid] | > 80 | –
13 | Cc1nnc2sc(-c3ccc(NC(=O)c4ccc(-c5ccc(Cl)cc5Cl)o4)cc3)nn12 [MLS000050448] | > 80 | –

Second part, the molecule after the results:

Row | IC50 [µM] | IC50 [1] [µM] | Structure (SMILES)
14 | > 80 | – | CCOC(=O)CN1C(=O)S/C(=C/c2ccc(OCc3ccc(C(=O)O)cc3)cc2)C1=O [4-[[4-[(E)-[3-(2-ethoxy-2-oxoethyl)-2,4-dioxo-5-thiazolidinylidene]methyl]phenoxy]methyl]benzoic acid]
15 | > 80 | – | CCc1c(C)[nH]n(-c2ccc(Oc3ccccc3)c(S(=O)(=O)O)c2)c1=O [5-(4-ethyl-5-methyl-3-oxo-1H-pyrazol-2-yl)-2-phenoxybenzenesulfonic acid]
16 | 13.7 | – | NC(=O)c1cc2ccccc2o/c1=N\NC(=O)c1ccccc1O [(2Z)-2-[[(2-hydroxyphenyl)-oxomethyl]hydrazinylidene]-1-benzopyran-3-carboxamide]
17 | – | 54.9 | S=C(c1ccc(Br)cc1)N1CCN(Cc2ccccc2)CC1 [(4-bromophenyl)-[4-(phenylmethyl)-1-piperazinyl]methanethione]
18 | 41.5 | – | O=C1C(=O)N(CCCO)C(c2ccc(Br)cc2)C1C(=O)c1ccc(Br)cc1 (configuration not stated) [(4E)-5-(4-bromophenyl)-4-[(4-bromophenyl)-oxidanyl-methylidene]-1-(3-oxidanylpropyl)pyrrolidine-2,3-dione]
19 | – | 32 | Cc1ccc(C(=S)N2CCN(Cc3ccccc3)CC2)s1 [(5-methyl-2-thiophenyl)-[4-(phenylmethyl)-1-piperazinyl]methanethione]
20 | – | 72.3 | O=C(NCCCn1ccnc1)C(Cc1ccccc1)N1C(=O)c2ccccc2C1=O (configuration not stated) [MLS000040026]
21 | > 80 | – | CCc1ccc(OCC(=O)Nc2ccc(-c3nc4ccccc4o3)c(O)c2)cc1 [MLS000109444]
22 | > 80 | – | C=CC1=C(C(=O)O)N2C(=O)C(NC(=O)Cc3ccccc3)C2SC1 (configuration not stated) [MLS000123928]
